The structures appear in SMILES notation.

In the experiment the test system is P. falciparum blood stage, IPP rescue, flow cytometry 72 h. In words: IPP rescue of P. falciparum growth inhibition, mechanism study for antimalarial apicoplast targeting, P. falciparum blood stage (AID 743076). To be noted: at 5 µM; active compounds read high.

`O=C(O)C1Cc2c([nH]c3ccccc23)C(c2ccc(Cl)cc2Cl)N1` (stereo unspecified): the parasitemia ratio IPP rescue/non-rescue was 6.32.

The values are drawn from PubChem BioAssay AID743076.
